Test results taken from patent US7671054B1, “Reverse-turn mimetics and method relating thereto” (Choongwae Pharma Corporation, priority 2001, dated 2010).
“Also recorded” adds a separate entry of the source.

How the values were obtained:
[1] = tested on: survivin promoter in SW480 cells; experiment: Survivin luciferase reporter in SW480 cells; type: cell-based; settings: for IC50: Homo sapiens, SW480, Table 10, prodrug compounds, reporter gene assay Survivin, read-out: RGA, Survivin IC50
[2] = tested on: TCF4/β-catenin transcription (TOPFlash) in SW480 cells; experiment: Reporter gene assay (TOPFlash luciferase); type: cell-based; settings: Homo sapiens, SW480, Table 10; prodrug compounds, reporter gene assay TopF; read-out: RGA, TopF IC50
Summary of the method: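 SW480 cells transiently co-transfected with TOPFlash and pRL-null (4:1 µg) using Superfect, then reseeded at 3×10^4 cells/well and incubated overnight at 37 °C. Compound treatment lasted 24 h before luciferase read-out.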

SW480 cells [3] = experiment: MTS cytotoxicity test; type: cell-based; settings: Homo sapiens, Table 10, prodrug compounds, 24 hours treatment, read-out: MTS, SW480 (uM) LD50
Procedure: (§1) SW480 or HCT116 cells were placed into 96 well microplate (10^4cells/well) and incubated for 24 hours at 37° C. The cells were treated with TCF4 compound at various concentrations for 24 hours. 20 μl of MTS solution (Promega) was added into each well and incubated for 2 hours at 37° C. Cell viability was measured by reading the absorbance at 490 nm using microplate reader (Molecular Device) and cytotoxicity of a compound at each concentration was calculated.

HCT116 cells [4] = experiment: MTS cytotoxicity test; type: cell-based; settings: Homo sapiens, HCT-116, Table 10, prodrug compounds, 24 hours treatment, read-out: MTS, HCT116 (uM) LD50
Procedure: as §1

SW480 cells [5] = experiment: Growth inhibition assay (MTS); type: cell-based; settings: Homo sapiens; Table 10; prodrug compounds, SW480 cells, growth inhibition; read-out: MTS, SW480 (uM) GI50
Summary of the method: (§2)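 Cells seeded at 10^4 per well, grown 24 h at 37° C, then exposed to compound at various concentrations for 48 hours. MTS added for 2 h; absorbance at 490 nm gave viability, with cytotoxicity calculated per concentration against pre-treatment reading.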

HCT116 cells [6] = experiment: Growth inhibition assay (MTS); type: cell-based; settings: Homo sapiens, HCT-116; Table 10; prodrug compounds, HCT116 cells, growth inhibition; read-out: MTS, HCT116 (uM) GI50
Summary of the method: as §2

[7] = tested on: min mice (polyp formed in small intestine and colon); experiment: Min mouse model; type: in vivo; settings: about 300 mpk
Procedure: Selected compounds of the present invention (Compound B and Compound C) were evaluated in the min mouse model to evaluate their efficacy as anti-cancer agents.
The min mouse model is a widely used model to test for this type of efficacy. The numbers of polyp formed in small intestine and colon of these mice after various treatments were measured (Table 7).

SW480 cells [8] = experiment: Soft agar assay, Compound A with 5-FU; type: cell-based; settings: for LD50, soft agar assay: 8 days
Procedure: Compound A solution and upper layer solution containing agarose were mixed, and SW480 cells were added and solidified. Plates were incubated 37° C. at CO2 incubator for 8 days after solidification at room temperature for 30 min, and colonies were counted under microscope (FIG. 19).

HUVEC = experiment: Tube formation assay (In Vitro Angiogenesis Assay Kit); type: cell-based; settings: 0.1-10 μM, 12 h
Procedure: Tube formation assay was performed using an In Vitro Angiogenesis Assay Kit (Chemicon International, Inc., Temecula, Calif., USA). Briefly, solid gels were prepared according to the manufacturer's manual on a 96-well tissue culture plate. HUVEC (1×10^5 cells/ml) in HuMedia EG-2 medium containing […] were seeded 100 μl per well onto the surface of the solid gel, ECMatrix™. The cells were incubated with vehicle control, Compound E at 0.1 μM, 0.3 μm, 1.0 μM, 3 μM, and 10 μM, or Fumagilin at 10 μM for 12 h at 37° C. in a CO2 incubator. Tube formation was observed under an inverted light microscope at ×100 magnification. Microscopic fields were photographed with a digital camera.

TCF4 = experiment: Effect on TCF4 expression (Table 9); type: cell-based
Source text: (§3) The effects of various compounds having general formula (I) on survivin and TCF4 expression were characterized.

Survivin = experiment: Effect on survivin expression (Table 9); type: cell-based
Source text: as §3

`CN1CC(=O)N2[C@@H](Cc3ccc(OP(=O)(O)O)cc3)C(=O)N(Cc3cccc4ccccc34)C[C@@H]2N1C(=O)NCc1ccccc1` [Compound 2] was tested, and the IC50 [1] was 5.7 µM, the IC50 [2] was 3.5 µM and the IC50 (SW480 cells [3]) was 8.2 µM. The IC50 (HCT116 cells [4]) was 23.2 µM, the GI50 (SW480 cells [5]) was 3.1 µM and the GI50 (HCT116 cells [6]) was 6.6 µM.
With `C=CCN1CC(=O)N2[C@@H](Cc3ccc(OP(=O)(O)O)cc3)C(=O)N(Cc3cccc4c3N(C)CCO4)C[C@@H]2N1C(=O)NCc1ccccc1` [Compound 12] the IC50 [1] was 0.7 µM, the IC50 [2] was 1 µM and the IC50 (SW480 cells [3]) was greater than 50 µM. It also gave an IC50 (HCT116 cells [4]) of 19.3 µM, a GI50 (SW480 cells [5]) of 1 µM and a GI50 (HCT116 cells [6]) of 1.2 µM.
With `CN1CC(=O)N2[C@@H](Cc3ccc(OP(=O)(O)O)cc3)C(=O)N(Cc3ccc(F)cc3F)C[C@@H]2N1C(=O)NCc1ccccc1` [Compound 4] the IC50 [1] was 6.5 µM, the IC50 [2] was 7.3 µM and the IC50 (SW480 cells [3]) was greater than 50 µM. For the same molecule, the IC50 (HCT116 cells [4]) was 49.3 µM, the GI50 (SW480 cells [5]) was 6.9 µM and the GI50 (HCT116 cells [6]) was 11.4 µM.
`C=CCN1CC(=O)N2[C@@H](Cc3ccc(OP(=O)(O)O)cc3)C(=O)N(Cc3ccc(Cl)c4cccnc34)C[C@@H]2N1C(=O)NCc1ccccc1` [Compound 7] showed an IC50 [1] of 1 µM, an IC50 [2] of 2.3 µM and an IC50 (SW480 cells [3]) of 12.9 µM. It also gave an IC50 (HCT116 cells [4]) of 12 µM, a GI50 (SW480 cells [5]) of 2.2 µM and a GI50 (HCT116 cells [6]) of 1.8 µM.
With `CN1CC(=O)N2[C@@H](Cc3ccc(O)cc3)C(=O)N(Cc3cccc4cccnc34)C[C@@H]2N1C(=O)NCc1ccccc1` [Compound B] the “number of polyp compared to vehicle control mice” value [7] was “reduce the number of polyp in min mice”.
Molecule `C=CCN1CC(=O)N2[C@@H](Cc3ccc(OP(=O)(O)O)cc3)C(=O)N(Cc3cccc4cccnc34)C[C@@H]2N1C(=O)NCc1ccccc1` [Compound 6] has an IC50 [1] of 0.1 µM, an IC50 [2] of 0.8 µM and an IC50 (SW480 cells [3]) of 9.2 µM. It also gave an IC50 (HCT116 cells [4]) of 6.4 µM, a GI50 (SW480 cells [5]) of 0.5 µM and a GI50 (HCT116 cells [6]) of 0.4 µM.
With `CN(C)c1cc(CN2C[C@H]3N(C(=O)CN(C)N3C(=O)NCc3ccccc3)[C@@H](Cc3ccc(OP(=O)(O)O)cc3)C2=O)ccc1Cl` [Compound 13] the IC50 [1] was 0.9 µM, the IC50 [2] was 1.8 µM and the IC50 (SW480 cells [3]) was 21.1 µM. It also gave an IC50 (HCT116 cells [4]) of 20 µM, a GI50 (SW480 cells [5]) of 2.3 µM and a GI50 (HCT116 cells [6]) of 1.7 µM.
With `CN1CC(=O)N2[C@@H](Cc3ccc(OP(=O)(O)O)cc3)C(=O)N(Cc3ccc4ncsc4c3)C[C@@H]2N1C(=O)NCc1ccccc1` [Compound 11] the IC50 [1] was 6.7 µM, the IC50 [2] was 10.3 µM and the IC50 (SW480 cells [3]) was greater than 50 µM. For the same molecule, the IC50 (HCT116 cells [4]) was greater than 50 µM, the GI50 (SW480 cells [5]) was 6.5 µM and the GI50 (HCT116 cells [6]) was 6.3 µM.
`C=CCN1CC(=O)N2[C@@H](Cc3ccc(OP(=O)(O)O)cc3)C(=O)N(Cc3ccc(F)cc3F)C[C@@H]2N1C(=O)NCc1ccccc1` [Compound 8] was tested, and the IC50 [1] was 0.9 µM, the IC50 [2] was 1.4 µM and the IC50 (SW480 cells [3]) was 21.6 µM. The IC50 (HCT116 cells [4]) was 23.2 µM, the GI50 (SW480 cells [5]) was 2.1 µM and the GI50 (HCT116 cells [6]) was 1.9 µM.
With `CN1CC(=O)N2[C@@H](Cc3ccc(O)cc3)C(=O)N(Cc3cccc4ccccc34)C[C@@H]2N1C(=O)NCc1ccccc1` [Compound A] the “survivin luciferase reporter activity” value ([1]; SW480 cells, various concentrations) was “inhibit expression of survivin; also recorded: inhibit the activity of a survivin luciferase reporter”, the “synergy with 5-FU in soft agar assay” value (SW480 cells [8]) was “synergism of anti-cancer activity; also recorded: synergy” and the “LD50, soft agar assay” value (SW480 cells [8]; in combination with 0 μM 5-FU) was 76 µM. For the same molecule, the “LD50, soft agar assay” value (SW480 cells [8]; in combination with 1 μM 5-FU) was 30 µM and the “LD50, soft agar assay” value (SW480 cells [8]; in combination with 4 μM 5-FU) was 2 µM.
`C=CCN1CC(=O)N2[C@@H](Cc3ccc(O)cc3)C(=O)N(Cc3ccccc3)C[C@@H]2N1C(=O)NCc1ccccc1` [Compound E] was tested, and the tube formation (HUVEC) was “inhibited tube formation in a dose-dependent manner”.
`CN(C)c1cc(F)ccc1CN1C[C@H]2N(C(=O)CN(C)N2C(=O)NCc2ccccc2)[C@@H](Cc2ccc(OP(=O)(O)O)cc2)C1=O` [Compound 3] was tested, and the IC50 [2] was 11.5 µM, the IC50 (SW480 cells [3]) was greater than 50 µM and the IC50 (HCT116 cells [4]) was 41.9 µM. For the same molecule, the GI50 (SW480 cells [5]) was 3 µM and the GI50 (HCT116 cells [6]) was 3.1 µM.
`CN(C)c1cc(Cl)ccc1CN1C[C@@H]2N(C(=O)CN(C)N2C(=O)NCc2ccccc2)[C@@H](Cc2ccc(O)cc2)C1=O` was tested, and the IC50 (TCF4) was 13.9 ± 2.3 µM, the inhibition at 5 µM (Survivin) was 6% and the inhibition at 25 µM (Survivin) was 89%.
`CN1CC(=O)N2[C@@H](CN(Cc3cccc4c3ncn4C)C(=O)[C@@H]2Cc2ccc(O)cc2)N1C(=O)NCc1ccccc1` gave an IC50 (TCF4) of 13.2 ± 4.1 µM, an inhibition at 5 µM (Survivin) of 45% and an inhibition at 25 µM (Survivin) of 88%.
`CN1CC(=O)N2[C@@H](Cc3ccc(OP(=O)(O)O)cc3)C(=O)N(Cc3cccc4cccnc34)C[C@@H]2N1C(=O)NCc1ccccc1` [Compound 9] showed an IC50 [1] of 6 µM, an IC50 [2] of 9.6 µM and an IC50 (SW480 cells [3]) greater than 50 µM. It also gave an IC50 (HCT116 cells [4]) greater than 50 µM, a GI50 (SW480 cells [5]) of 7.6 µM and a GI50 (HCT116 cells [6]) of 14.7 µM.
`CCN(CC)c1cccc(CN2C[C@@H]3N(C(=O)CN(C)N3C(=O)NCc3ccccc3)[C@@H](Cc3ccc(O)cc3)C2=O)c1` showed an IC50 (TCF4) of 3.5 ± 0.3 µM, an inhibition at 5 µM (Survivin) of 0% and an inhibition at 25 µM (Survivin) of 77%.
For `CN(C)c1cc(F)c(F)cc1CN1C[C@H]2N(C(=O)CN(C)N2C(=O)NCc2ccccc2)[C@@H](Cc2ccc(OP(=O)(O)O)cc2)C1=O` [Compound 14], the IC50 [1] was 1.2 µM, the IC50 [2] was 1.7 µM and the IC50 (SW480 cells [3]) was 21.1 µM. For the same molecule, the IC50 (HCT116 cells [4]) was 16 µM, the GI50 (SW480 cells [5]) was 2.3 µM and the GI50 (HCT116 cells [6]) was 2.1 µM.
`CCCN1CC(=O)N2[C@@H](Cc3ccc(OP(=O)(O)O)cc3)C(=O)N(Cc3cccc4cccnc34)C[C@@H]2N1C(=O)NCc1ccccc1` [Compound 10] showed an IC50 [1] of 1.7 µM, an IC50 [2] of 2.8 µM and an IC50 (SW480 cells [3]) of 0.4 µM. It also gave an IC50 (HCT116 cells [4]) of 7 µM, a GI50 (SW480 cells [5]) of 0.9 µM and a GI50 (HCT116 cells [6]) of 0.8 µM.
`CN1CC(=O)N2[C@@H](Cc3ccc(OP(=O)(O)O)cc3)C(=O)N(Cc3cccc4cnn(C)c34)C[C@@H]2N1C(=O)NCc1ccccc1` [Compound 5] gave an IC50 [2] of 26 µM, an IC50 (SW480 cells [3]) of 34 µM and an IC50 (HCT116 cells [4]) greater than 50 µM. It also gave a GI50 (SW480 cells [5]) of 5.2 µM and a GI50 (HCT116 cells [6]) of 16.5 µM.
With `CN1CC(=O)N2[C@@H](CN(Cc3ccc(Cl)c4cccnc34)C(=O)[C@@H]2Cc2ccc(O)cc2)N1C(=O)NCc1ccccc1` the IC50 (TCF4) was 2.6 ± 0.6 µM, the inhibition at 5 µM (Survivin) was 86% and the inhibition at 25 µM (Survivin) was 91%.
`CN(C)c1cc(CN2C[C@@H]3N(C(=O)CN(C)N3C(=O)NCc3ccccc3)[C@@H](Cc3ccc(O)cc3)C2=O)ccc1Cl` was tested, and the IC50 (TCF4) was 7.3 ± 0.6 µM, the inhibition at 5 µM (Survivin) was 0% and the inhibition at 25 µM (Survivin) was 92%.
